“Also recorded” adds a separate entry of the source. Where two headings read alike, the source gives them in different places.
Assay: Phase I open-label drug-drug interaction study: single-dose plasma pharmacokinetics of compound 1 before and after repeat doses of rifampicin
Assay type: in vivo, human
Conditions: for Mean maximal compound 1 plasma concentration: from mean concentration-time profile; for Cmax / AUC(0-t): po, 600 mg; for Cmax: healthy male subjects; for concentration at 24 h: read-out: C24h
Description: A phase I, open-label, non-randomized, drug-drug interaction study in healthy male subjects is done to evaluate the impact of repeat doses of rifampicin, on the single-dose pharmacokinetics (PK) of compound 1 as well as to evaluate the safety and tolerability of a single dose of compound 1 administered before or after oral doses of rifampicin.
Eighteen healthy male subjects received a single oral dose of 600 mg compound 1 on Day 1. From Days 2 to 11, 600 mg rifampicin was administered once daily (q.d.) to all subjects for 10 consecutive days. On Day 12, subjects received a single oral dose of 600 mg of compound 1 (see Table 1). A follow-up visit is conducted between days 15 and 18.
On days 1, 2, 12, 13 (i.e. 1, 2, 3, 4, 5, 6, 7, 8, 12 and 24 hours post compound 1 administration on day 1 and day 12) and at the follow-up visit, blood samples for PK assessment of compound 1 are taken. Blood samples of 2 mL for the determination of compound 1 levels in plasma are collected by venipuncture (or indwelling catheter) in the arm, into vacuum tubes containing lithium heparin and are immediately chilled (ice bath).
Within 30 min after blood collection, the plasma is separated by centrifugation at 4° C. for 10 min at circa 1,500 g and transferred into 2 polypropylene tubes with at least 400 μL of plasma in the first aliquot and the remaining volume in the second aliquot. After appropriate labeling, the plasma samples are stored in the clinical center at −20° C.±10° C. within 2 h following centrifugation and are protected from direct sunlight.
Plasma concentrations were measured using validated liquid chromatography with tandem mass (LC/MS-MS) spectrometry methods with a limit of quantification of 1.00 ng/mL for compound 1, 20.0 mg/mL for cholesterol and 5.00 ng/mL for 4-β-hydroxycholesterol. Non-compartmental PK calculations are performed using Phoenix WinNonlin® (version 6.4).
The following parameters are determined for compound 1 from individual concentration-time profiles in plasma: • Cmax: maximum observed plasma concentration • tmax: time of occurrence of Cmax • AUC0-t: area under the plasma concentration-time curve from time zero till the time corresponding with the last observed quantifiable concentration, calculated by the linear up-logarithmic down trapezoidal rule • AUC0-24h: area under the plasma concentration-time curve from time zero till 24 h post-dose, calculated by the linear up-logarithmic down trapezoidal rule • C24h: plasma concentration observed at 24 h post-dose
Plasma concentrations and PK parameters of compound 1 are listed by day (Day 1: compound 1 before multiple rifampin doses; Day 12: compound 1 after multiple rifampin doses) for each subject. Descriptive statistics are calculated by day for the plasma concentration and PK parameters. Mean (±SE) concentration-time profiles are generated by day.
A mixed-effects model with day as fixed effect and subject as random effect is performed on the following natural log (ln)-transformed PK parameters of compound 1: Cmax, C24h, AUC0-t, and AUC0-24h. […] The 90% confidence interval (CI) of the point estimate is calculated using the mean square error of the analysis of variance.
As tmax is a discrete variable dependent on selected blood sampling times, day effect was assessed using a non-parametric test (Wilcoxon's signed-rank test).

[1] = point estimate of least-squares geometric means ratio, Day 12 relative to Day 1
[2] = rifampin 600 mg q.d. for 10 days, Day 12 vs Day 1

CCc1nc2c(C)cc(N3CCN(CC(=O)N4CC(O)C4)CC3)cn2c1N(C)c1nc(-c2ccc(F)cc2)c(C#N)s1 [Compound 1]
Time post-dose at which mean maximal concentration is attained (Day 1, single 600 mg oral dose): 2 h | Mean maximal compound 1 plasma concentration (Day 1, single 600 mg oral dose): 7,870 ng/mL | Time post-dose at which mean maximal concentration is attained (Day 12, after multiple rifampin doses): 2 h | Mean maximal compound 1 plasma concentration (Day 12, single 600 mg oral dose after rifampin 600 mg q.d. 10 days): 1,180 ng/mL | Impact of multiple rifampin intake on compound 1 clearance (Day 12 compared with Day 1): no impact | Impact of multiple rifampin intake on apparent rate of elimination of compound 1 (Day 12 compared with Day 1, visual inspection of profiles): no impact | Decrease of AUC0-24h by multiple rifampin intake (Day 12 vs Day 1): 89.2% | Decrease of Cmax by multiple rifampin intake (Day 12 vs Day 1): 83.2% | Bioavailability of compound 1 after multiple rifampin intake (as shown by point estimates, Day 12 vs Day 1): markedly lower | Elimination of compound 1 (shape of log-linear mean concentration-time profile) (before and after multiple rifampin intake): biphasic | Cmax (male, human, plasma, single oral 600 mg compound 1, after multiple rifampin doses 600 mg q.d. 10 days (Day 12), N = 18, arithmetic mean): 1440 ng/mL | Cmax (male, human, plasma, single oral 600 mg compound 1, before multiple rifampin doses (Day 1), N = 18, arithmetic mean): 8660 ng/mL | AUC(0-t) (male, human, plasma, single oral 600 mg, after multiple rifampin doses (Day 12), N = 17, arithmetic mean, read-out: AUC0-24h): 3750 ng·h/mL | AUC(0-t) (male, human, plasma, single oral 600 mg, after multiple rifampin doses (Day 12), N = 18, arithmetic mean, read-out: AUC0-t): 3570 ng·h/mL | AUC(0-t) (male, human, plasma, single oral 600 mg, before multiple rifampin doses (Day 1), N = 18, arithmetic mean, read-out: AUC0-24h): 36300 ng·h/mL | AUC(0-t) (male, human, plasma, single oral 600 mg, before multiple rifampin doses (Day 1), N = 18, arithmetic mean, read-out: AUC0-t): 36300 ng·h/mL | concentration at 24 h (male, human, plasma, single oral 600 mg, after multiple rifampin doses (Day 12), N = 18, arithmetic mean): 1.69 ng/mL | concentration at 24 h (male, human, plasma, single oral 600 mg, before multiple rifampin doses (Day 1), N = 18, arithmetic mean): 83.4 ng/mL | Tmax (male, human, plasma, single oral 600 mg, before multiple rifampin doses (Day 1), N = 18, median): 2 h | AUC0-24h Comparison (PE %) [1]: 10.75% | AUC0-t Comparison (PE %) [1]: 10.24% | C24h Comparison (PE %) [1]: 2.48% | Cmax Comparison (PE %) [1]: 16.78% | Decrease of AUC0-24h by multiple rifampin intake [2]: 9.3 fold | Decrease of Cmax by multiple rifampin intake [2]: 6.0 fold | Day effect (rifampin) on tmax (statistical analysis Day 12 vs Day 1): no significant effect; also recorded: no significant impact

From patent US20210315887A1, “METHODS OF ADMINISTERING THERAPY” (GALAPAGOS NV, priority 2018, published 2021)
